Laboratory results: patent publication US8772355B2, “Stealth polymeric particles for delivery of bioactive or diagnostic agents” (Howard University, priority 2010, dated 2014)

Test: Preliminary solubility tests
Format: physicochemical
Conditions: preliminary solubility tests for both compounds

hydrophobicity compared with paclitaxel: more hydrophobic
Compound: CC(=O)N(C(C)=O)C1=C(Cl)C(=O)c2ccccc2C1=O [Zapp88, 2-chloro-3-diacetylamino-1,4-naphthoquinone]
